# Columns and labels:
# H1650 = H1650 cell viability (ATP content); assay type: cell-based; settings: Homo sapiens, NCI-H1650, 72 h, read-out: H1650 IC50(72h)
# Method: (§1) 574 H1650 is a human lung cancer derived ATG7-null cell line (49) that can be used to assess effects on targets
# (§2) 576 adenocarcinoma; bronchoalveolar carcinoma). Other cells lines used are: H460 (NCI-H460; human lung;
# (§3) 577 carcinoma; large cell lung cancer; ATCC: HTB-177); and HCT116 (human colon; colorectal carcinoma;
# (§4) 578 ATCC: CCL-247; Lot : 5056139). Each of the cell lines was received from the American Type Culture
# (§5) 579 Collection (ATCC) and passaged twice before freezing. Cells were cultured in the presence or absence of
# (§6) 580 inhibitors and cell viability was assessed by comparing the ATP content in compound-treated wells with
# (§7) 581 that in DMSO-treated wells as previously described (11). […]
# (§8) 585 37°C humidified incubator as adherent semi-confluent monolayers in complete Dulbecco’s Modified Eagle
# (§9) 586 Media (c-DMEM). DMEM (Gibco™, Thermo Fisher Scientific, Australia) was supplemented with 10%
# P. falciparum (3D7) = P. falciparum (3D7) culture growth inhibition, 72 h; assay type: cell-based, Plasmodium falciparum; settings: Plasmodium falciparum, 3D7, 72 h, read-out: Pf3D7 IC50(72h)
# Method: (1 picture or pasted object on this page, not shown here)
# 553 Sigma-Aldrich) for 48-72 h. For drug pulse assays, tightly synchronized parasites (1-1.5% parasitemia,
# 554 0.2% final hematocrit) were added to the plates and incubated for 3 h. Drugs were removed and the
# 555 parasitemia assessed in the trophozoite stage of the next cycle.
# 557 Compounds were tested against a range of drug resistant field isolates and laboratory strains using a
# 558 modified [3H]-hypoxanthine incorporation assay, as previously reported (46). Field isolates 7G8, Cam3.1,
# 559 Dd2, K1, TM90C2B and NF54 were obtained from MR4 (www.beiresources.org).
# 561 Mammalian cell culture experiments
# 562 The HepG2 (Human hepatocyte carcinoma) cell line was procured from ATCC (American Type
# 563 Culture Collection, Manassas, USA; HB-8065) and viability assessed using Cell Titer-GLO luminescent
# 564 cell viability assay reagents (Promega, catalogue number: G7570) (47, 48). For the assay, 2000 cells/well
# 565 were plated in 384-well plates 24 h prior to the experiment and incubated at 37°C in a CO2 incubator. The
# 566 medium was removed and cells were treated with fresh medium containing either vehicle (0.5% DMSO)
# 567 or serially diluted test compounds or doxorubicin (1.3 nM to 25 µM) in a final volume of 50 µl/well and
# 568 further incubated for 72 h at 37°C in a CO2 incubator.
# 569 were treated with 5 µl of 1% Triton X-100 (final assay conc. 0.1%). Following incubation, 25 µl of medium
# 570 was discarded and 25 µl of Cell Titer-GLO reagent was added to each well and the plate was kept on a plate
# 571 shaker for 15 min at 25°C with shaking at 300 rpm. Luminescence signals were measured in a Spectramax
# 572 M5 reader (Molecular Devices).
# as §1, §2, §3, §4, §5, §6
# 581 that in DMSO-treated wells as previously described (11).
# 583 HeLa cells (human cervical adenocarcinoma; genome sequenced (Garvin Institute, Australia) and verified
# HCT116 = HCT116 cell viability (ATP content); assay type: cell-based; settings: Homo sapiens, HCT-116, 72 h, read-out: HCT116 IC50(72h)
# Method: as §1, §2, §3, §4, §5, §6, §7, §8, §9
# H460 = H460 cell viability (ATP content); assay type: cell-based; settings: Homo sapiens, NCI-H460, 72 h, read-out: H460 IC50(72h)
# Method: as §1, §2, §3, §4, §5, §6, §7, §8, §9
# [1] = system: eIF2α phosphorylation in P. falciparum; experiment: Western blot for phosphorylated-eIF2α; assay type: cell-based, Plasmodium falciparum; settings: wildtype P. falciparum cultures
# Method: Synchronous ring-stage YRScyt conditional knockdown line and the aptamer-regulatable control
# 700 the drug plate. Lowest drug treatment and a lethal dose of chloroquine (200 nM) served as reference
# Two guide RNAs (gRNA1: […] and gRNA2:
# Ring-stage P. falciparum parasites (Dd2 strain) at 10%
# Using a modification of a published procedure (14), the
# 722 cells were labelled with O-propargyl-puromycin (OPP; 4 µM) for 1 h, washed 3x (PBS +3% serum) and
# Flow cytometry was performed
# 730 hematocrit and 5% parasitemia. The RBC pellet was washed 3 x in PBS + cOmplete. Cells were centrifuged
# The wash with PBS + cOmplete and
# The pellet was resuspended in Bolt LDS sample
# The samples were vortexed for 10 min at room temperature.
# Secondary antibodies: goat
# 740 anti-rabbit IgG-peroxidase (Sigma-Aldrich-A0545; 1:20 000), goat anti-mouse IgG-peroxidase (Chemicon-
# Chemiluminescence was detected using the Bio-Rad ChemiDocTM MP imaging
# For the human mature YRS construct,
# The YRS sequences were codon optimized for E. coli,
# The vector was transformed into
# PfYRS, PfYRSS234C and HsYRS were induced
# Cell pellets were resuspended in 40 mL lysis
# Cells were lysed by sonication (Microtip, QSonica)
# The supernatant was applied to a 5
# 757 mL HisTrap HP column (GE Healthcare) and washed with 50 mL binding buffer containing 50 mM Tris-
# His-YRS was eluted using a 0-500 mM
# The eluted His-YRS was dialyzed overnight at 4°C
# 760 against 50 mM Tris-HCl, pH 8, 500 mM NaCl, 30 mM imidazole, 1 mM TCEP with the addition of His-
# Cleaved His tags from His-YRS and TEV
# YRS was further purified by gel filtration using a HiLoad 16/600 Superdex 200 column (GE
# PfYRS [2] = biological target: T1, PfYRS (Plasmodium falciparum, UniProt Q8IAR7); experiment: Tyrosine acylation of cognate tRNATyr by PfYRS; assay type: biochemical
# HsYRS = biological target: T2, HsYRS (Homo sapiens, UniProt P54577); experiment: Tyrosine acylation of cognate tRNATyr by HsYRS; assay type: biochemical; settings: YRS 0.25 μM, ATP 10 μM, 37°C 1 h
# T2 construct: made in house; host or cells: E. coli BL21(DE3), pET-11a
# T2 sequence (P54577 1-364): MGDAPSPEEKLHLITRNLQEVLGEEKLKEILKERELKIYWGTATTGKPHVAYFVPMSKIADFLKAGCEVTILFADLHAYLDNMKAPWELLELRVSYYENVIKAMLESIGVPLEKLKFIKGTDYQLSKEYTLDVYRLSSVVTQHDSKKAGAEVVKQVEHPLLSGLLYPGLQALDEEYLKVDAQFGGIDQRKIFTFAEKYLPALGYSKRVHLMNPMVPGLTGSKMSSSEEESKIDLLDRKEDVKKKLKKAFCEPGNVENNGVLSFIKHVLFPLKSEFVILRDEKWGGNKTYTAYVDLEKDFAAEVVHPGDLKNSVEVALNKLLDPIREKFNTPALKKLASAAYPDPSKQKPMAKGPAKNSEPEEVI
# PfYRS [3] = biological target: T1, PfYRS; experiment: biochemical; assay type: binding
# Method: (§10) 804 An intron was detected in the PftRNATyr sequence, that was not indicated in PlasmoDB. A T7 RNA
# (§11) 805 polymerase promoter sequence was added to the 5’ end of the DNA sequence of P. falciparum and H.
# (§12) 806 sapiens tRNATyr. This DNA template and its complementary strand were custom-synthesized by Sigma-
# (§13) 807 Aldrich. Two oligonucleotides were annealed at 95°C for 5 min and the double-stranded DNA template
# (§14) 808 was used for in vitro transcription. The transcription reaction was incubated at 37°C overnight. The reaction
# (§15) 809 mixture consists of template DNA, T7 RNA polymerase and NTP mix as per manufacturer's instructions
# (§16) 810 (HiScribe™ T7 Quick High Yield RNA Synthesis Kit, NEB). On the following day, the reaction mixture
# (§17) 811 was treated with DNase I at 37°C for 15 min. tRNA was purified using RNA clean-up spin columns
# (§18) 812 (Monarch® RNA Cleanup Kit, NEB) to remove contaminants from the transcription reaction.
# (§19) 814 Differential scanning fluorimetry (DSF)
# (§20) 815 PfYRS and HsYRS at 0.1 mg/ml were incubated with various substrates at 37°C for 1-3 h. PfYRS was
# (§21) 816 assayed in 25 mM Tris, pH 8, 150 mM NaCl, 5 mM MgCl2 and 1 mM TCEP. HsYRS was assayed in 50
# (§22) 817 mM Tris, pH 7.5, 150 mM NaCl, 50 mM KCl, 5 mM MgCl2 and 1 mM TCEP. SYPRO Orange (Sigma-
# (§23) 818 Aldrich; 5,000X concentrate in DMSO) was added to the reaction mixture at a final concentration of 2.5X.
# (§24) 819 25 µL of the sample was added into each well of a 96-well qPCR plate (Applied Biosystems). The plate
# (§25) 820 was sealed and analysed using StepOnePlus Real-Time PCR system (Applied Biosystems). The samples
# (§26) 821 were heated from 20°C to 90°C with a 1% continuous gradient. The thermal unfolding curve was plotted
# (§27) 822 as the first derivative curve of the raw fluorescence values. The melting temperature (Tm), defined as the
# (§28) 823 peak of the first derivative curve, was used to assess the thermal stability of protein-ligand complexes. KD
# (§29) 824 values were calculated from DTm using the equation: ln(KD/[L]) = -131.5 x (∆Tm/Tm,apo) - 1.9, where [L]
# (§30) 825 is the concentration of ligand and T is the temperature in Kelvin (40). […]
# PfYRSS234C = PfYRSS234C (Plasmodium falciparum, UniProt Q8IAR7, S234C); experiment: biochemical; assay type: binding
# Method: as §10, §11, §12, §13, §14, §15, §16, §17, §18, §19, §20, §21, §22, §23, §24, §25, §26, §27, §28, §29, §30
# T1 sequence (Q8IAR7 entry or part of it): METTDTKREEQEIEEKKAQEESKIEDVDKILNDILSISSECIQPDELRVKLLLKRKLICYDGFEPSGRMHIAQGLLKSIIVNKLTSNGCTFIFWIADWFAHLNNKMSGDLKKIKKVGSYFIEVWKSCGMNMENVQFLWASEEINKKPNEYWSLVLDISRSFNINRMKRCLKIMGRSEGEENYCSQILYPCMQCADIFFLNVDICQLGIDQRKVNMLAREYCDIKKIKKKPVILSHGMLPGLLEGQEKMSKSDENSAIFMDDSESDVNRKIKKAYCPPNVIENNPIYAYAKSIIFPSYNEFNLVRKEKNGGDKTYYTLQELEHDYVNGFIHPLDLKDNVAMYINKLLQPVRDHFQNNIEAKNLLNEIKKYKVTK
# Chain of PfYRSS234C (Q8IAR7 whole entry S234C): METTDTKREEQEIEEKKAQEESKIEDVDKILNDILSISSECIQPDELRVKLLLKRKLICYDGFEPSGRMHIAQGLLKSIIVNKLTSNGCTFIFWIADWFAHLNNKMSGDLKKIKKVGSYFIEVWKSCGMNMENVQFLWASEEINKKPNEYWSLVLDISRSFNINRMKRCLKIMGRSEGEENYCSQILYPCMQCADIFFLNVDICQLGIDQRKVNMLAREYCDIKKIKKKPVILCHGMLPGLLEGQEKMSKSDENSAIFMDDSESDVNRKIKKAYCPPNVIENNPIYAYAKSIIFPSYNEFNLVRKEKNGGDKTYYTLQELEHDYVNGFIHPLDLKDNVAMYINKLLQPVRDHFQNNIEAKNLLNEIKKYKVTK
Compound,IC50 (H1650) [nM],IC50 (P. falciparum (3D7)) [nM],IC50 (HCT116) [nM],IC50 (H460) [nM],eIF2α phosphorylation [1],IC50 (PfYRS [2]) [nM],IC50 (HsYRS) [nM],Kd (PfYRS [3]) [nM],"Tm (PfYRS [3]; PfYRS 2.3 μM, after incubation at 37°C for 3 h) [oC]","DTm (PfYRS [3]; PfYRS, versus apo) [oC]",Kd (PfYRSS234C) [nM],"Tm (PfYRSS234C; PfYRSS234C 2.3 μM, after incubation at 37°C for 3 h) [oC]"
"Nc1ncnc2c1ncn2[C@@H]1O[C@H](COS(N)(=O)=O)[C@@H](O)[C@H]1O [AMS, adenosine 5′-sulfamate, reference compound]",140,1.8,26,25 ± 7,triggers eIF2α phosphorylation,,,,,,,
Nc1ncnc2c1c(OC(F)F)nn2C1OC(COS(=O)(=O)NC(=O)C(N)Cc2ccc(O)cc2)C(O)C1O (stereo not drawn) [ML901-Tyr],,,,,,1600,23000,0.7,65.1 ± 0.1,14.9,3.9,59.7 ± 0.3

# From paper PMC7613620, “Reaction hijacking of tyrosine tRNA synthetase as a whole-of-life-cycle antimalarial strategy” (Science (New York, N.Y.), 2022)
